Results published in ChEMBL document CHEMBL3352697, “Molecular modeling studies of atorvastatin analogues as HMGR inhibitors using 3D-QSAR, molecular docking and molecular dynamics simulations” (Bioorg Med Chem Lett, 2014).

Molecular target: T1, 3-hydroxy-3-methylglutaryl-coenzyme A reductase (Homo sapiens, UniProt P04035)
T1 sequence (P04035 whole entry): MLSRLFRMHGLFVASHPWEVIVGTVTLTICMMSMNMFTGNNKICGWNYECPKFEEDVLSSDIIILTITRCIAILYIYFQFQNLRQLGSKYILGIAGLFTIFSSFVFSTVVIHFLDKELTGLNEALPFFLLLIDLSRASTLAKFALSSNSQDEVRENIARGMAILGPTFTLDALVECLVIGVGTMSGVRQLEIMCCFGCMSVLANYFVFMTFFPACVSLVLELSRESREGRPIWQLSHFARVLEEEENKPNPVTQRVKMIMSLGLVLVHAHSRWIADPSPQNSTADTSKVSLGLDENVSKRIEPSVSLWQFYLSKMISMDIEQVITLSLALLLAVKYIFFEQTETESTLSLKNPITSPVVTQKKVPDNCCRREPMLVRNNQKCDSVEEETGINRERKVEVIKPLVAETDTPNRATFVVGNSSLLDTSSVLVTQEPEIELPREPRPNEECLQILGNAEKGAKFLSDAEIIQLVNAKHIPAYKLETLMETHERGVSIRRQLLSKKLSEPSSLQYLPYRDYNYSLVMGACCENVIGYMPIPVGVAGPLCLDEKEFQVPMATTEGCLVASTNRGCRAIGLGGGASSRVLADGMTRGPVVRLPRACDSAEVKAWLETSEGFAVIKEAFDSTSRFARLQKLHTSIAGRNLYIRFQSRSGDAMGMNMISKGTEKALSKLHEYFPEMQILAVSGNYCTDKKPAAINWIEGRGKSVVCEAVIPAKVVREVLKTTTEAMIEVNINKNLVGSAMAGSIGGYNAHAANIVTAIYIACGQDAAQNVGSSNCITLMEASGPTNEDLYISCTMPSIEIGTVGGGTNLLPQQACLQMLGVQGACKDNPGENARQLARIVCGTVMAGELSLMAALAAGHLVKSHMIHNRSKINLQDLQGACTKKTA
Assay: Inhibition of HMG-CoA reductase (unknown origin)

Compound: CC(C)n1c(/C=C/[C@@H](O)C(F)(F)[C@@H](O)CC(=O)O)c(-c2ccc(F)cc2)c2ccccc21
- IC50: 8.89 nM
